In PubChem BioAssay (NCI):
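Values below derive from 48-hour exposures of cells grown in 96-well plates, with endpoints linearly interpolated between the two concentrations bracketing the appropriate inhibition level. Definition used: TGI = concentration required for complete inhibition of growth.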

Columns and labels:
Assay in all cases: inhibition of tumour cell growth, NCI panel, 48 h
[1] = tested on: SK-MEL-5 melanoma
[2] = tested on: UACC-257 melanoma
[3] = tested on: NCI-H522 lung
[4] = tested on: HOP-62 NSCLC
[5] = tested on: MDA-N
[6] = tested on: TK-10 renal
[7] = tested on: K-562 leukemia
[8] = tested on: OVCAR-8 ovarian
[9] = tested on: M14 melanoma
[10] = tested on: LOX IMVI melanoma
[11] = tested on: SNB-75 CNS
[12] = tested on: CAKI-1 renal
[13] = tested on: OVCAR-3 ovarian
[14] = tested on: A498 renal
[15] = tested on: HCC-2998 colon
[16] = tested on: CCRF-CEM leukemia
[17] = tested on: SK-OV-3 ovarian
[18] = tested on: DU-145 prostate
[19] = tested on: MDA-MB-435
[20] = tested on: NCI/ADR-RES ovarian
[21] = tested on: SK-MEL-28 melanoma
[22] = tested on: SR leukemia
[23] = tested on: COLO 205 colon
[24] = tested on: SN12C renal
[25] = tested on: A549 NSCLC
[26] = tested on: NCI-H460 lung
[27] = tested on: SF-268 CNS
[28] = tested on: ACHN renal
[29] = tested on: RPMI-8226 leukemia
[30] = tested on: EKVX NSCLC
[31] = tested on: SW-620 colon
[32] = tested on: SF-295 CNS
[33] = tested on: MALME-3M melanoma
[34] = tested on: 786-0 renal
[35] = tested on: HCT-15 colon
[36] = tested on: HL-60(TB) leukemia
[37] = tested on: U251 CNS
[38] = tested on: PC-3 prostate
[39] = tested on: RXF 393 renal
[40] = tested on: IGROV1 ovarian
[41] = tested on: MDA-MB-231 breast
[42] = tested on: UO-31 renal
[43] = tested on: MOLT-4 leukemia
[44] = tested on: SNB-19 CNS
[45] = tested on: HS 578T breast
[46] = tested on: NCI-H226 lung
[47] = tested on: HCT-116 colon
[48] = tested on: UACC-62 melanoma
[49] = tested on: T-47D breast
[50] = tested on: KM12 colon
[51] = tested on: OVCAR-4 ovarian
[52] = tested on: MCF7 breast
[53] = tested on: NCI-H23 lung
[54] = tested on: SF-539 CNS
[55] = tested on: OVCAR-5 ovarian
[56] = tested on: HT29 colon
[57] = tested on: HOP-92 NSCLC
[58] = tested on: SK-MEL-2 melanoma

`CCCCCCCc1c(Cl)nc(Cl)nc1Cl` gave a TGI [1] of 14.8 µM, a TGI [2] of 23.3 µM and a TGI [3] of 3.85 µM. The TGI [4] was 33.2 µM, the TGI [5] was 13.1 µM and the TGI [6] was 26.7 µM. For the same compound, the TGI [7] was 4.16 µM, the TGI [8] was 5.18 µM and the TGI [9] was 4.71 µM. For the same compound, the TGI [10] was 4.49 µM, the TGI [11] was 28.9 µM and the TGI [12] was 5.36 µM. For the same compound, the TGI [13] was 17.1 µM, the TGI [14] was 34.6 µM and the TGI [15] was 17 µM. The TGI [16] was 2.66 µM, the TGI [17] was 18.5 µM and the TGI [18] was 27.4 µM. It also gave a TGI [19] of 5.94 µM, a TGI [20] of 13.3 µM and a TGI [21] of 18.6 µM. For the same compound, the TGI [22] was 3.14 µM, the TGI [23] was 17.9 µM and the TGI [24] was 4.65 µM. It also gave a TGI [25] of 32.8 µM, a TGI [26] of 27.8 µM and a TGI [27] of 16.3 µM. For the same compound, the TGI [28] was 20.8 µM, the TGI [29] was 8.85 µM and the TGI [30] was 22.2 µM. The TGI [31] was 6.21 µM, the TGI [32] was 31.6 µM and the TGI [33] was 8.83 µM. The TGI [34] was 10.2 µM, the TGI [35] was 10.1 µM and the TGI [36] was 5.34 µM. The TGI [37] was 9.89 µM, the TGI [38] was 23.7 µM and the TGI [39] was 6.26 µM. For the same compound, the TGI [40] was 4.83 µM, the TGI [41] was 9.54 µM and the TGI [42] was 17.3 µM. It also gave a TGI [43] of 3.51 µM, a TGI [44] of 24.4 µM and a TGI [45] of 33.2 µM. For the same compound, the TGI [46] was 4.68 µM, the TGI [47] was 9.2 µM and the TGI [48] was 20.5 µM. The TGI [49] was 30.4 µM, the TGI [50] was 25 µM and the TGI [51] was 9.87 µM. It also gave a TGI [52] of 26.9 µM, a TGI [53] of 10.2 µM and a TGI [54] of 23.5 µM. For the same compound, the TGI [55] was 21 µM, the TGI [56] was 13.6 µM and the TGI [57] was 11.4 µM.

`Cc1coc2c1[C@@H](O)[C@@]1(C)[C@H](CCC[C@@H]1C)C2` gave a TGI [1] of 77.5 µM, a TGI [2] of 84.3 µM and a TGI [3] of 73.5 µM. The TGI [4] was 93.2 µM, the TGI [5] was 64.1 µM and the TGI [6] was greater than 100 µM. The TGI [7] was 74.7 µM, the TGI [8] was 47.8 µM and the TGI [9] was 43.9 µM. The TGI [10] was greater than 100 µM, the TGI [12] was greater than 100 µM and the TGI [13] was 64.8 µM. The TGI [15] was greater than 100 µM, the TGI [16] was greater than 100 µM and the TGI [17] was greater than 100 µM. The TGI [18] was greater than 100 µM, the TGI [19] was 38.1 µM and the TGI [20] was 54.5 µM. It also gave a TGI [21] greater than 100 µM, a TGI [22] greater than 100 µM and a TGI [23] of 60.1 µM. For the same compound, the TGI [24] was 75.7 µM, the TGI [26] was greater than 100 µM and the TGI [27] was greater than 100 µM. For the same compound, the TGI [28] was greater than 100 µM, the TGI [29] was 90.6 µM and the TGI [30] was greater than 100 µM. For the same compound, the TGI [31] was greater than 100 µM, the TGI [32] was greater than 100 µM and the TGI [33] was 99 µM. It also gave a TGI [34] greater than 100 µM, a TGI [35] greater than 100 µM and a TGI [36] of 62 µM. It also gave a TGI [38] greater than 100 µM, a TGI [39] of 55 µM and a TGI [40] greater than 100 µM. The TGI [41] was 59.3 µM, the TGI [43] was 89.4 µM and the TGI [44] was greater than 100 µM. The TGI [45] was greater than 100 µM, the TGI [46] was 76.3 µM and the TGI [47] was greater than 100 µM. The TGI [48] was greater than 100 µM, the TGI [49] was greater than 100 µM and the TGI [50] was greater than 100 µM. For the same compound, the TGI [51] was greater than 100 µM, the TGI [52] was greater than 100 µM and the TGI [53] was greater than 100 µM. For the same compound, the TGI [54] was 47 µM, the TGI [55] was greater than 100 µM and the TGI [56] was greater than 100 µM. For the same compound, the TGI [57] was greater than 100 µM.

`CC1=NN(c2cccc(Cl)c2)C2(SCC(=O)N2c2nc3ccccc3s2)/C1=C\c1ccccc1` (stereo unspecified) was tested, and the TGI [1] was 30.3 µM, the TGI [2] was 85.2 µM and the TGI [3] was 34.6 µM. It also gave a TGI [4] of 56.7 µM, a TGI [5] of 42.3 µM and a TGI [6] greater than 100 µM. It also gave a TGI [7] of 54.4 µM, a TGI [8] of 45.7 µM and a TGI [9] of 70.1 µM. The TGI [10] was 66.6 µM, the TGI [11] was greater than 100 µM and the TGI [12] was 53 µM. For the same compound, the TGI [13] was greater than 100 µM, the TGI [14] was 51.8 µM and the TGI [15] was 29.3 µM. For the same compound, the TGI [16] was greater than 100 µM, the TGI [17] was 55.1 µM and the TGI [18] was 45.3 µM. The TGI [19] was 38.9 µM, the TGI [20] was 83.3 µM and the TGI [21] was greater than 100 µM. It also gave a TGI [22] of 63.3 µM, a TGI [26] of 32.4 µM and a TGI [27] of 54.4 µM. For the same compound, the TGI [28] was 48.4 µM, the TGI [29] was 46.8 µM and the TGI [30] was greater than 100 µM. For the same compound, the TGI [31] was 37.3 µM, the TGI [32] was 81.2 µM and the TGI [34] was 31 µM. It also gave a TGI [35] of 37.4 µM, a TGI [36] of 67.7 µM and a TGI [37] of 44.3 µM. For the same compound, the TGI [38] was 64.2 µM, the TGI [39] was 40.6 µM and the TGI [40] was 58.7 µM. For the same compound, the TGI [41] was 55.5 µM, the TGI [42] was 63.6 µM and the TGI [43] was 60.2 µM. For the same compound, the TGI [45] was 55.4 µM, the TGI [46] was 97.4 µM and the TGI [47] was 29.4 µM. The TGI [49] was greater than 100 µM, the TGI [50] was 32.2 µM and the TGI [58] was 46.7 µM. It also gave a TGI [51] of 62.7 µM, a TGI [52] of 84.3 µM and a TGI [53] of 51.9 µM. The TGI [54] was greater than 100 µM, the TGI [55] was 58.8 µM and the TGI [56] was 44.8 µM. For the same compound, the TGI [57] was 25.6 µM.
